The subject of this assay is Swiss mice, Sarcoma 180 sc, mean tumor weight T/C. Nature of the assay: NCI In Vivo Anticancer Drug Screen. Data for tumor model Sarcoma 180 (subcutaneous) in Swiss mice. To be noted: endpoint: mean tumor weight, higher = larger tumour. In a few lines: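 Tumor-bearing mice, transplantable tumor; readout survival or tumor size; result = T/C, treated vs vehicle control.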

Setting [1] is: dose: 200.0 mg/kg/injection, schedule: Q01DX007 (ip), vehicle: carboxymethylcellulose (CMC).
Setting [2] is: dose: 500.0 mg/kg/injection, schedule: Q01DX007 (ip), vehicle: carboxymethylcellulose (CMC).

“And” between values parts separate entries of the source, which are not always exact repeats. Equal entries are not always repeated.

Take `COC(=O)[C@H]1[C@H]2C[C@@H]3c4[nH]c5cc(OC)ccc5c4CCN3C[C@H]2C[C@@H](OC(=O)c2cc(OC)c(OC)c(OC)c2)[C@@H]1OC`: the T/C is, setting by setting: (dose: 0.44 mg/kg/injection, schedule: Q01DX007 (ip), vehicle: carboxymethylcellulose (CMC)) 101 % of control; (dose: 0.5 mg/kg/injection, schedule: Q01DX007 (ip), vehicle: carboxymethylcellulose (CMC)) 91 % of control; (dose: 0.66 mg/kg/injection, schedule: Q01DX007 (ip), vehicle: carboxymethylcellulose (CMC)) 79 % of control; (dose: 2.0 mg/kg/injection, schedule: Q01DX007 (ip), vehicle: carboxymethylcellulose (CMC)) 35 % of control; (dose: 2.3 mg/kg/injection, schedule: Q01DX007 (ip), vehicle: carboxymethylcellulose (CMC)) 42 % of control; (dose: 3.4 mg/kg/injection, schedule: Q01DX007 (ip), vehicle: carboxymethylcellulose (CMC)) 18 % of control.

For the compound `O=C(Nc1ccc(C2=NCCCN2)cc1)c1ccc(NC(=O)c2ccc(C3=NCCCN3)cc2)cc1`, the T/C reads like this: (dose: 8.0 mg/kg/injection, schedule: Q01DX007 (ip), vehicle: carboxymethylcellulose (CMC)) 78 % of control; (dose: 16.0 mg/kg/injection, schedule: Q01DX007 (ip), vehicle: carboxymethylcellulose (CMC)) 73 % of control.

Take `CC(=O)OCC(=O)[C@@]1(O)CC[C@H]2[C@@H]3CCC4=CC(=O)C=C[C@]4(C)[C@H]3[C@@H](O)C[C@@]21C`: the T/C is, setting by setting: (dose: 13.3 mg/kg/injection, schedule: Q01DX007 (sc), vehicle: steriod suspending solution) 73 % of control; (dose: 20.0 mg/kg/injection, schedule: Q01DX007 (sc), vehicle: steriod suspending solution) 62 % of control; (dose: 30.0 mg/kg/injection, schedule: Q01DX007 (sc), vehicle: steriod suspending solution) 51 % of control; (dose: 45.0 mg/kg/injection, schedule: Q01DX007 (sc), vehicle: steriod suspending solution) 23 % of control.

On to `CCCS/C(N)=N/N=C/c1ccc([N+](=O)[O-])o1`, for which the T/C is 81 % of control (dose: 13.5 mg/kg/injection, schedule: Q#A X014 (ip), vehicle: water); 53 % of control (dose: 20.0 mg/kg/injection, schedule: Q#A X014 (ip), vehicle: water); 67 % of control (dose: 27.0 mg/kg/injection, schedule: Q01DX007 (ip), vehicle: other); 61 % of control (dose: 27.0 mg/kg/injection, schedule: Q01DX007 (ip), vehicle: water); 34 % of control (dose: 30.0 mg/kg/injection, schedule: Q#A X014 (ip), vehicle: water); 45 % of control (dose: 40.0 mg/kg/injection, schedule: Q01DX007 (ip), vehicle: water). Also, under “dose: 60.0 mg/kg/injection, schedule: Q01DX007 (ip), vehicle: water”, the T/C was 59 % of control.

In the case of `Cc1nc(C(N)=O)nc2ccccc12`, the T/C runs as follows: (dose: 62.5 mg/kg/injection, schedule: Q#A X014 (ip), vehicle: methylcellulose (MC)) 64 % of control and 81 % of control; under setting [1], 64 % of control and 65 % of control; (dose: 250.0 mg/kg/injection, schedule: Q#A X014 (ip), vehicle: methylcellulose (MC)) 36 % of control.

`Nc1nc(SC2=NCCN2)c2[nH]cnc2n1`: the T/C (dose: 1.25 mg/kg/injection, schedule: Q01DX007 (ip), vehicle: carboxymethylcellulose (CMC)) was 57 % of control; the T/C (dose: 2.5 mg/kg/injection, schedule: Q01DX007 (ip), vehicle: carboxymethylcellulose (CMC)) was 67 % of control; the T/C (dose: 5.0 mg/kg/injection, schedule: Q01DX007 (ip), vehicle: carboxymethylcellulose (CMC)) was 57 % of control.

Turning to `NC1(C(=O)OCc2ccccc2)CCCC1`, the T/C is, setting by setting: (dose: 50.0 mg/kg/injection, schedule: Q01DX007 (ip), vehicle: carboxymethylcellulose (CMC)) 87 % of control; (dose: 100.0 mg/kg/injection, schedule: Q01DX007 (ip), vehicle: carboxymethylcellulose (CMC)) 76 % of control; under setting [1], 66 % of control; (dose: 333.0 mg/kg/injection, schedule: Q01DX007 (ip), vehicle: carboxymethylcellulose (CMC)) 64 % of control; (dose: 400.0 mg/kg/injection, schedule: Q01DX007 (ip), vehicle: carboxymethylcellulose (CMC)) 47 % of control; under setting [2], 36 % of control. For the same compound, the T/C was 55 % of control (dose: 750.0 mg/kg/injection, schedule: Q01DX007 (ip), vehicle: carboxymethylcellulose (CMC)) and 25 % of control (dose: 800.0 mg/kg/injection, schedule: Q01DX007 (ip), vehicle: carboxymethylcellulose (CMC)).

Regarding `C[C@]12CC[C@H](O)C[C@@H]1CC[C@@H]1[C@@H]2C(=O)C[C@]2(C)C3=CC(=O)O[C@H]3C[C@@H]12`, the T/C is 103 % of control (dose: 5.0 mg/kg/injection, schedule: Q01DX007 (sc), vehicle: steriod suspending solution); 97 % of control (dose: 10.0 mg/kg/injection, schedule: Q01DX007 (sc), vehicle: steriod suspending solution); 95 % of control (dose: 40.0 mg/kg/injection, schedule: Q01DX007 (sc), vehicle: steriod suspending solution).

On to `O=[N+]([O-])c1ccc(C=Nc2ccc3c(c2)C(Br)c2ccccc2-3)cc1` (centres undefined), for which the T/C (dose: 55.0 mg/kg/injection, schedule: Q#A X014 (ip), vehicle: saline) was 56 % of control; the T/C (dose: 83.0 mg/kg/injection, schedule: Q#A X014 (ip), vehicle: saline) was 30 % of control and 37 % of control; the T/C (dose: 110.0 mg/kg/injection, schedule: Q01DX007 (ip), vehicle: saline) is 88 % of control; the T/C (dose: 125.0 mg/kg/injection, schedule: Q#A X014 (ip), vehicle: saline) was 28 % of control and 37 % of control; the T/C (dose: 166.0 mg/kg/injection, schedule: Q01DX007 (ip), vehicle: saline) is 85 % of control; the T/C (dose: 187.5 mg/kg/injection, schedule: Q#A X014 (ip), vehicle: saline) is 18 % of control. Further, the T/C (dose: 250.0 mg/kg/injection, schedule: Q01DX007 (ip), vehicle: saline) was 94 % of control and the T/C (dose: 375.0 mg/kg/injection, schedule: Q01DX007 (ip), vehicle: saline) is 61 % of control.

Regarding `CC(=O)OCC(=O)[C@@]1(O)CC[C@H]2[C@@H]3C[C@H](C)C4=CC(=O)C=C[C@]4(C)[C@@]3(F)[C@@H](O)C[C@@]21C`, the T/C by setting is: (dose: 125.0 mg/kg/injection, schedule: Q01DX007 (sc), vehicle: steriod suspending solution) 41 % of control; (dose: 187.0 mg/kg/injection, schedule: Q01DX007 (sc), vehicle: steriod suspending solution) 30 % of control.

`CC(=O)N(C)C`: the T/C was 100 % of control (dose: 62.0 mg/kg/injection, schedule: Q01DX007 (ip), vehicle: carboxymethylcellulose (CMC)); 95 % of control (dose: 125.0 mg/kg/injection, schedule: Q01DX007 (ip), vehicle: carboxymethylcellulose (CMC)); 65 % of control under setting [2]; 104 % of control (dose: 750.0 mg/kg/injection, schedule: Q01DX007 (ip), vehicle: saline); 70 % of control (dose: 1000.0 mg/kg/injection, schedule: Q01DX007 (ip), vehicle: saline).

As to `CC(=O)Nc1ccc(/C=N/Nc2ccc([N+](=O)[O-])cn2)cc1`, the T/C by setting is: (dose: 45.0 mg/kg/injection, schedule: Q01DX007 (ip), vehicle: carboxymethylcellulose (CMC)) 62 % of control; (dose: 67.0 mg/kg/injection, schedule: Q01DX007 (ip), vehicle: carboxymethylcellulose (CMC)) 79 % of control; (dose: 83.3 mg/kg/injection, schedule: Q#A X014 (ip), vehicle: carboxymethylcellulose (CMC)) 77 % of control; (dose: 83.3 mg/kg/injection, schedule: Q#A X014 (ip), vehicle: methylcellulose (MC)) 61 % of control; (dose: 125.0 mg/kg/injection, schedule: Q#A X014 (ip), vehicle: carboxymethylcellulose (CMC)) 22 % of control; (dose: 187.5 mg/kg/injection, schedule: Q#A X014 (ip), vehicle: carboxymethylcellulose (CMC)) 48 % of control. Besides, for the setting “dose: 281.25 mg/kg/injection, schedule: Q#A X014 (ip), vehicle: carboxymethylcellulose (CMC)”, the T/C was 47 % of control.

For `CC(O)C(NCNC(=O)C1=C(O)C2(O)C(=O)C3=C(O)c4c(O)cccc4C(C)(O)C3CC2C(N(C)C)C1=O)C(=O)O` (centres undefined), for the setting “dose: 250.0 mg/kg/injection, schedule: Q#A X014 (ip), vehicle: saline”, the T/C is 44 % of control and 46 % of control.

The values above are taken from PubChem BioAssay AID342 (DTP/NCI, 2004).
